ChEMBL document CHEMBL1136951, “5-hydroxyindole-2-carboxylic acid amides: novel histamine-3 receptor inverse agonists for the treatment of obesity” (J Med Chem, 2009)

Columns and labels:
[1] = human, microsomes, 2 µM
[2] = rat, microsomes, 2 µM
[3] = physchem
[4] = physchem; details: octanol/water, pH 7.4
[5] = species on record: Rattus norvegicus; test: animal or person; details: Wistar, ip, read-out: INH
[6] = target: Histamine H2 receptor (Homo sapiens) (UniProt P25021); details: CHO, 3 uM
[7] = species on record: Rattus norvegicus; test: animal or person; details: Wistar, ip, read-out: INH; remark: listed apart in the source
[8] = in vivo; details: Sprague-Dawley, rat, brain/plasma, ip, 30 mg/kg
[9] = in vivo; details: Sprague-Dawley, rat, brain, ip, 30 mg/kg
[10] = in vivo; details: Wistar, rat
[11] = target: hERG (KCNH2) (Homo sapiens, UniProt Q12809); test: in vitro; details: CHO cells expressing human ERG
[12] = in vivo; details: Wistar, rat; remark: listed apart in the source
[13] = species on record: Rattus norvegicus; test: animal or person; details: Wistar, po, read-out: INH
[14] = species on record: Rattus norvegicus; test: animal or person; details: Wistar, po, read-out: INH; remark: listed apart in the source
[15] = in vivo; details: Sprague-Dawley, rat, brain, ip, 10 mg/kg
[16] = species on record: Rattus norvegicus; test: animal or person; details: Wistar, ip, read-out: INH; remark: listed apart in the source
[17] = target: Histamine H3 receptor (Homo sapiens) (UniProt Q9Y5N1); details: CHO, 3 uM
[18] = in vivo; details: Sprague-Dawley, rat, brain, po, 10 mg/kg
[19] = in vivo; details: Wistar, rat; remark: listed apart in the source
[20] = physchem; remark: listed apart in the source
[21] = species on record: Rattus norvegicus; test: animal or person; details: Wistar, ip, read-out: INH; remark: listed apart in the source
[22] = target: Histamine H1 receptor (Homo sapiens) (UniProt P35367); details: CHO, 3 uM
[23] = target: Histamine H4 receptor (Homo sapiens) (UniProt Q9H3N8); details: CHO, 3 uM
Sequence of Histamine H4 receptor (Homo sapiens) (Q9H3N8 whole entry): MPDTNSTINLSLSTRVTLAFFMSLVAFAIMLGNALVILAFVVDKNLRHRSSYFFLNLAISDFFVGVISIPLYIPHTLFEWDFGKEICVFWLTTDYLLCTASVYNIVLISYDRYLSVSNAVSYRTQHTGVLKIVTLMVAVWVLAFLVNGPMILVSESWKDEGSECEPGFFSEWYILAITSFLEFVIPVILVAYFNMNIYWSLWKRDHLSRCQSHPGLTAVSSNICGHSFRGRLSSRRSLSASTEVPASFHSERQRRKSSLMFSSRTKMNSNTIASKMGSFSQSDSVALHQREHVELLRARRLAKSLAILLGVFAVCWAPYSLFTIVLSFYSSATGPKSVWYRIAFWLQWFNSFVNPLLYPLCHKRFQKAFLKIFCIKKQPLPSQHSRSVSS

Sequence of hERG (KCNH2) (Q12809 whole entry): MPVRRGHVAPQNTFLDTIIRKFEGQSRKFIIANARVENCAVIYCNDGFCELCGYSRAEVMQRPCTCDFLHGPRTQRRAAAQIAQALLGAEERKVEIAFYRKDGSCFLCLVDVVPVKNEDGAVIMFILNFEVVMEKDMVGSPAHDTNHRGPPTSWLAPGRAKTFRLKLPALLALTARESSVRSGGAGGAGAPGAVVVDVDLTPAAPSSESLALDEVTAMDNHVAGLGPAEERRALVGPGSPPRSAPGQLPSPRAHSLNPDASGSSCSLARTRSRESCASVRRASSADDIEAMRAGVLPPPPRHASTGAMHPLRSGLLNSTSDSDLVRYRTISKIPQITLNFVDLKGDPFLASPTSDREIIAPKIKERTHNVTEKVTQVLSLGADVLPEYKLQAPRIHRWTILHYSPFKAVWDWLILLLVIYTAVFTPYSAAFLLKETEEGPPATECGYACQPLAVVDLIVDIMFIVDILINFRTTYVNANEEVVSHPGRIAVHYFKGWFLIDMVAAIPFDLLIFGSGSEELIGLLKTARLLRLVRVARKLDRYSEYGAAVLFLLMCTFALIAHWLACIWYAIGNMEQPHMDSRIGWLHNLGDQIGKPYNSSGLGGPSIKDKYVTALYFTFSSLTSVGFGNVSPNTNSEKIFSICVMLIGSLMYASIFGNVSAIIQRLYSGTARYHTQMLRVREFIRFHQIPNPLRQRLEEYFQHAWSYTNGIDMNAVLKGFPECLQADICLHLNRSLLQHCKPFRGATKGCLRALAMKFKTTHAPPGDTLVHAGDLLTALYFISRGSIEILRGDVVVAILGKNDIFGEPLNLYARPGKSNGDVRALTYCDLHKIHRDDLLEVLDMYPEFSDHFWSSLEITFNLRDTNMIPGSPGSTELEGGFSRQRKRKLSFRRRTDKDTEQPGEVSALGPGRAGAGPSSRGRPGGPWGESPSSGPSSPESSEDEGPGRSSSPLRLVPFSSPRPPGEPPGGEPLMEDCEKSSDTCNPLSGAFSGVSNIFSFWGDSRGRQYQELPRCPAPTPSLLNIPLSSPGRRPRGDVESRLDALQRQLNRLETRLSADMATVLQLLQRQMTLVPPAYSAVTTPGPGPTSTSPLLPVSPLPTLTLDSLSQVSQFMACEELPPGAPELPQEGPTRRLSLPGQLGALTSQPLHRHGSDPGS
Sequence of Histamine H2 receptor (Homo sapiens) (P25021 whole entry): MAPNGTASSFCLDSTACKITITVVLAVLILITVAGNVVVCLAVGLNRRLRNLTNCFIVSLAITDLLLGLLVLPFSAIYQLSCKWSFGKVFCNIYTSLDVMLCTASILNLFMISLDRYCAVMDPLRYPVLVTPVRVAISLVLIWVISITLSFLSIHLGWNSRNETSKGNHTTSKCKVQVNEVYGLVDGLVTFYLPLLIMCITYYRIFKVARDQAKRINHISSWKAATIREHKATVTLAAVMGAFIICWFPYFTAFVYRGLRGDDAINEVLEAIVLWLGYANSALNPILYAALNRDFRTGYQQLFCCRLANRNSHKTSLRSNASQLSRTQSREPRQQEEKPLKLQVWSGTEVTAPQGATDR
Sequence of Histamine H3 receptor (Homo sapiens) (Q9Y5N1 whole entry): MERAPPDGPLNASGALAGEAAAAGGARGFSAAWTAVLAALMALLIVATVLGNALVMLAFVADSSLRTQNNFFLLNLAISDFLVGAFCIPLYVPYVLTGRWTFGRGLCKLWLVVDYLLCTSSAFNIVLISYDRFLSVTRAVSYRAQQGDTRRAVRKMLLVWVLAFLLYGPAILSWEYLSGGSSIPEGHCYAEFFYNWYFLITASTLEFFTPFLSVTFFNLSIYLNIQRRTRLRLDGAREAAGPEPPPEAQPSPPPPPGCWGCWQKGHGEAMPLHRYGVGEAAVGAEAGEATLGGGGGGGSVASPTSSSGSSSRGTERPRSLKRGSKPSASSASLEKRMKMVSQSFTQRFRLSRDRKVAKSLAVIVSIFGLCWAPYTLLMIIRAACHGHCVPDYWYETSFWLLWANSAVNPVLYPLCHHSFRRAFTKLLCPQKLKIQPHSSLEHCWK
Sequence of Histamine H1 receptor (Homo sapiens) (P35367 whole entry): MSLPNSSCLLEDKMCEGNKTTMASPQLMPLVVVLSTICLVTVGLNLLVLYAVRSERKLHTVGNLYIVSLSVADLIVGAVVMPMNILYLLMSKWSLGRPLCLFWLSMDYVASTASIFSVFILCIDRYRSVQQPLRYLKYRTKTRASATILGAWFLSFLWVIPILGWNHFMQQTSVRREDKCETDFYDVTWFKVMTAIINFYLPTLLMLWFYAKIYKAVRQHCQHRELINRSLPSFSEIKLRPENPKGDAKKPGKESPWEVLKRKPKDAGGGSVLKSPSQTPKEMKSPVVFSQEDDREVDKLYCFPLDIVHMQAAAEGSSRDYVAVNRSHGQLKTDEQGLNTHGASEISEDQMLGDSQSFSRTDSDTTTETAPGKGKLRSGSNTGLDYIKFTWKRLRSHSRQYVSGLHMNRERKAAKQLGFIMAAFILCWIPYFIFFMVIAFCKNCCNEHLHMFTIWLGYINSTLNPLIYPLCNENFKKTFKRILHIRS

SMILES | clearance [1] [µL/min/mg] | clearance [2] [µL/min/mg] | pKa [3] | logD [4] | also measured
CC(C)N1CCC(Oc2ccc3cc(C(=O)N4CCOCC4)[nH]c3c2)CC1 | < 1 | 8 | 9.7 | 0.31 | inhibition in vivo at 10 mg/kg [5]: 60%
CC(C)N1CCC(Oc2ccc3[nH]c(C(=O)N4CCCC(F)(F)C4)cc3c2)CC1 | < 1 | 17 | 10 | 1.23 | inhibition in vivo at 10 mg/kg [5]: 86%
CC(=O)n1c(C(=O)N2CCC(F)(F)CC2)cc2cc(OC3CCN(C(C)C)CC3)ccc21 | < 1 |  |  |  | 
CC(C)N1CCC(Oc2ccc3c(c2)cc(C(=O)N2CCC(F)(F)CC2)n3S(=O)(=O)c2ccc(F)cc2)CC1 | < 1 | 20 |  | 3.04 | inhibition [6]: > 30%
CC(C)N1CCC(Oc2cc3[nH]c(C(=O)N4CCOCC4)cc3cc2F)CC1 | 6 | 18 | 9.5 |  | 
COC1CCN(C(=O)c2cc3cc(OC4CCN(C(C)C)CC4)ccc3[nH]2)CC1 | 5 | 20 | 9.9 | 0.59 | inhibition in vivo at 30 mg/kg [7]: 70%
CC(C)N1CCC(Oc2ccc3[nH]c(C(=O)N4CCOCC4)cc3c2)CC1 | < 1 | 12 | 10 | 0.09 | Kp [8]: 0.3; concentration at 2 h [9]: 2230 ng/g; half-life [10]: 1 h; inhibition at 10 µM [11]: 28%; inhibition in vivo at 30 mg/kg [7]: 91%
CC(C)N1CCC(Oc2ccc3c(c2)cc(C(=O)N2CCC(F)(F)CC2)n3-c2ccc(Cl)c(Cl)c2)CC1 | < 1 | 104 |  | 3.38 | inhibition [6]: > 30%
O=C(c1cc2cc(OC3CCN(C4CC4)CC3)ccc2n1CC(F)(F)F)N1CCOCC1 | 11 | 143 | 7.5 | 2.79 | 
CC(C)N1CCC(Oc2ccc3c(c2)cc(C(=O)N2CCC(F)(F)CC2)n3S(C)(=O)=O)CC1 | < 1 | 10 | 9.6 | 1.31 | half-life [10]: 6 h; Vd [12]: 9.2 L/kg; inhibition at 10 µM [11]: 64%; inhibition in vivo at 3 mg/kg [13]: 81%
O=C(c1cc2cc(OC3CCN(C4COC4)CC3)ccc2n1CC(F)(F)F)N1CCOCC1 | 8 | 228 | 6.4 | 1.83 | 
CC(C)N1CCC(Oc2ccc3c(c2)cc(C(=O)N2CCOCC2)n3CC(F)(F)F)CC1 | < 1 | 13 | 9.7 | 1.1 | inhibition in vivo at 10 mg/kg [14]: 87%; inhibition in vivo at 10 mg/kg [5]: 87%
CC(C)N1CCC(Oc2ccc3c(c2)cc(C(=O)N2CCC(F)(F)CC2)n3CC#N)CC1 | < 1 | 16 | 9.8 | 1.13 | 
CC(C)N1CCC(Oc2ccc3[nH]c(C(=O)N4CCC(O)C4)cc3c2)CC1 (stereo not drawn) | 12 | 5 | 9.8 | -0.15 | inhibition in vivo at 30 mg/kg [7]: 83%
CC(C)N1CCC(Oc2ccc3c(c2)cc(C(=O)N2CCC(F)(F)CC2)n3CC(F)(F)F)CC1 | 2 | 8 | 9.7 | 2.08 | concentration at 2 h [15]: 435 ng/g; half-life [10]: 1.8 h; inhibition in vivo at 3 mg/kg [16]: 49%
CC(C)(C)N1CCC(Oc2ccc3[nH]c(C(=O)N4CCOCC4)cc3c2)CC1 | 10 | 13 | 10 | 0.03 | 
CC(C)N1CCC(Nc2ccc3[nH]c(C(=O)N4CCOCC4)cc3c2)CC1 | 5 | 9 | 9.9 | -0.7 | inhibition in vivo at 30 mg/kg [7]: 99%
CCN(c1ccc2[nH]c(C(=O)N3CCOCC3)cc2c1)C1CCN(C(C)C)CC1 |  |  |  |  | inhibition [17]: 19%
O=C(c1cc2cc(OC3CCN(C4CCC4)CC3)ccc2n1CC(F)(F)F)N1CCOCC1 | 4 | 28 | 9.1 | 2.09 | 
Cc1[nH]c2ccc(OC3CCN(C(C)C)CC3)cc2c1C(=O)N1CCOCC1 | < 1 | 15 | 9.8 | -0.12 | 
O=C(c1cc2cc(OC3CCN(C4CC4)CC3)ccc2[nH]1)N1CCOCC1 | 5 | 347 | 7.7 | 1.95 | 
O=C(c1ccc2c(c1)cc(C(=O)N1CCOCC1)n2CC(F)(F)F)N1CCN(C2CCC2)CC1 | 10 | 16 | 6.8 | 1.97 | Kp [8]: 0.3; Vd [12]: 1.5 L/kg; inhibition at 10 µM [11]: 33%; inhibition in vivo at 10 mg/kg [14]: 93%
CC(C)N1CCC(Oc2ccc3c(c2)cc(C(=O)N2CCC(F)(F)CC2)n3C(C)C)CC1 | 4 | 12 | 9.9 | 1.67 | concentration at 2 h [18]: 1270 ng/g; half-life [10]: 11 h; Vd [12]: 9.2 L/kg; inhibition at 10 µM [11]: 42%; inhibition in vivo at 3 mg/kg [16]: 80%
CC(C)N1CCC(Oc2ccc3c(c2)cc(C(=O)N2CCS(=O)(=O)CC2)n3CC(F)(F)F)CC1 | 1 | 4 | 9.6 | 0.35 | 
CCOC(=O)c1cc2cc(C(=O)O)ccc2[nH]1 | < 1 | 15 |  | 0.04 | 
CC(C)N1CCC(Oc2ccc3[nH]c(C(=O)N4CCCCCC4)cc3c2)CC1 | 10 | 55 | 9.7 | 1.75 | inhibition in vivo at 10 mg/kg [5]: 76%
CC(C)N1CCC(Oc2ccc3[nH]c(C(=O)N4CCC(F)(F)CC4)cc3c2)CC1 | 5 | 9 | 9.7 | 1.2 | concentration at 2 h [18]: 1690 ng/g; half-life [10]: 4 h; bioavailability [19]: 100%; inhibition at 10 µM [11]: 73%; solubility [20]: > 540 µg/mL; inhibition in vivo at 1 mg/kg [21]: 58%
O=C(c1cc2cc(OCCCN3CCCCC3)ccc2[nH]1)N1CCOCC1 | < 1 | 6 | 10 | 0.32 | inhibition [22]: 6%; inhibition [6]: 3%; inhibition [23]: 4%; inhibition in vivo at 10 mg/kg [5]: 66%
